Results taken from US8802149B2, “Systems and processes for spray drying hydrophobic and hydrophilic components” (Novartis Pharma AG, priority 1996, dated 2014).

Experiment: Solubility of drug and excipient in common organic solvent or cosolvent system
Format: physicochemical
Details: for solubility in Acetone (50%)/Water (50%) (by volume): solvent Acetone (50%)/Water (50%) by volume
Text: According to the third aspect of the present invention. an organic solvent or cosolvent is selected in which both the hydrophobic drug or other component and the hydrophilic excipient or other component may be dissolved. […] The solvent must further be selected to leave minimum residual solvent in the spray dried process and/or be capable of being adequately removed from the spray dried product. The particular organic solvent or cosolvent selected will depend on the nature of the hydrophobic drug and the hydrophilic excipient.
Each of these formulations has been spray dried and tested as described in further detail in the Experimental section hereinafter.

solubility in Acetone (50%)/Water (50%) (by volume) | solubility in DMSO (33%)/Acetone (67%) (by volume) (solvent DMSO (33%)/Acetone (67%) by volume) | solubility in Ethanol (solvent Ethanol) | solubility in Methanol (solvent Methanol) | SMILES
(adequate solubility) |  |  |  | OC[C@@H](O)[C@@H](O)[C@H](O)[C@H](O)CO [Mannitol]
(adequate solubility) | (good solubility) | (adequate solubility) | (good solubility) | CCCC1O[C@@H]2C[C@H]3[C@@H]4CCC5=CC(=O)C=C[C@]5(C)[C@H]4[C@@H](O)C[C@]3(C)[C@]2(C(=O)CO)O1 (some centres unmarked) [Budesonide]
